Assays:
[1] = tested on: Hepatitis B virus; assay: Antiviral activity against Hepatitis B virus infected in human HepG2.2.15 cells assessed as inhibition of viral DNA synthesis incubated for 2 days followed by replacement of fresh medium containing compound and measured at day 10 by RT-PCR analysis; type: functional, organism-based
[2] = tested on: HepG2 2.2.15; assay: Cytotoxicity against human HepG2.2.15 cells assessed as reduction in cell viability incubated for 12 hrs followed by replacement of fresh medium containing compound and measured after 2 days by CCK-8 assay; type: functional
[3] = Selectivity index, ratio of CC50 for cytotoxicity against human HepG2.2.15 cells to EC50 for HBV infected in human HepG2.2.15 cells; type: toxicity, cell-based; settings: read-out: Ratio CC50/EC50
[4] = tested on: HK-2; assay: Cytotoxicity against human HK2 cells assessed as reduction in cell viability at 100 umol/L after 72 hrs by MTT assay relative to control; type: cell-based; settings: hk-2, 72 h, 100 µM
[5] = tested on: HK-2; assay: Reduction in mitochondrial membrane potential in human HK2 cells assessed as decrease in red fluorescence at 25 to 100 uM after 72 hrs by JC-1 staining based flow cytometry; type: ADME, cell-based; settings: hk-2, 72 h
[6] = tested on: HK-2; assay: Reduction in mitochondrial membrane potential in human HK2 cells assessed as increase in green fluorescence at 25 to 100 uM after 72 hrs by JC-1 staining based flow cytometry; type: ADME, cell-based; settings: hk-2, 72 h
[7] = tested on: HK-2; assay: Induction of mitochondrial membrane dysfunction in human HK2 cells assessed as reduction in mitochondrial potential at 100 uM after 72 hrs by JC-1 staining based flow cytometry; type: cell-based; settings: hk-2, 72 h
[8] = tested on: HK-2; assay: Induction of apoptosis in human HK2 cells assessed as nuclear pyknosis at 25 to 100 uM measured after 72 hrs by Hoechst 33342 staining based fluorescence assay; type: cell-based; settings: hk-2, 72 h
[9] = tested on: HK-2; assay: Induction of apoptosis in human HK2 cells assessed as dense staining at 25 to 100 uM measured after 72 hrs by Hoechst 33342 staining based fluorescence assay; type: cell-based; settings: hk-2, 72 h
[10] = tested on: HK-2; assay: Induction of apoptosis in human HK2 cells assessed as presence of apoptotic bodies at 25 to 100 uM measured after 72 hrs by Hoechst 33342 staining based fluorescence assay; type: cell-based; settings: hk-2, 72 h
[11] = tested on: HK-2; assay: Induction of apoptosis in human HK2 cells assessed as early apoptotic cells at 25 uM measured after 72 hrs by Annexin V-FITC/propidium iodide staining based flow cytometry (reference value: 8.1%); type: cell-based; settings: hk-2, 72 h
[12] = tested on: HK-2; assay: Induction of apoptosis in human HK2 cells assessed as early apoptotic cells at 50 uM measured after 72 hrs by Annexin V-FITC/propidium iodide staining based flow cytometry (reference value: 8.1%); type: cell-based; settings: hk-2, 72 h
[13] = tested on: HK-2; assay: Induction of apoptosis in human HK2 cells assessed as early apoptotic cells at 100 uM measured after 72 hrs by Annexin V-FITC/propidium iodide staining based flow cytometry (reference value: 8.1%); type: cell-based; settings: hk-2, 72 h
[14] = tested on: HK-2; assay: Induction of apoptosis in human HK2 cells assessed as reduction in Bcl-2 expression at 25 to 100 uM after 72 hrs by Western blot analysis; type: cell-based; settings: hk-2, 72 h
[15] = tested on: HK-2; assay: Induction of apoptosis in human HK2 cells assessed as increase in Bax level at 25 to 100 uM after 72 hrs by Western blot analysis; type: cell-based; settings: hk-2, 72 h
[16] = tested on: HK-2; assay: Induction of apoptosis in human HK2 cells assessed as increase in Bax/Bcl2 ratio after 72 hrs by Western blot analysis; type: cell-based; settings: hk-2, 72 h
[17] = tested on: HK-2; assay: Induction of apoptosis in human HK2 cells assessed as induction of cleaved caspase 3 levels at 25 to 100 uM after 72 hrs by Western blot analysis; type: cell-based; settings: hk-2, 72 h
[18] = target: T1, Solute carrier family 22 member 6 (Homo sapiens, UniProt Q4U2R8); assay: Substrate activity at human OAT1 expressed in HEK293 cells harboring pEGFP assessed as compound uptake measured after 20 mins by UPLC-MS/MS method; type: ADME, cell-based; settings: hek293, 20 min
T1 sequence (Q4U2R8 whole entry): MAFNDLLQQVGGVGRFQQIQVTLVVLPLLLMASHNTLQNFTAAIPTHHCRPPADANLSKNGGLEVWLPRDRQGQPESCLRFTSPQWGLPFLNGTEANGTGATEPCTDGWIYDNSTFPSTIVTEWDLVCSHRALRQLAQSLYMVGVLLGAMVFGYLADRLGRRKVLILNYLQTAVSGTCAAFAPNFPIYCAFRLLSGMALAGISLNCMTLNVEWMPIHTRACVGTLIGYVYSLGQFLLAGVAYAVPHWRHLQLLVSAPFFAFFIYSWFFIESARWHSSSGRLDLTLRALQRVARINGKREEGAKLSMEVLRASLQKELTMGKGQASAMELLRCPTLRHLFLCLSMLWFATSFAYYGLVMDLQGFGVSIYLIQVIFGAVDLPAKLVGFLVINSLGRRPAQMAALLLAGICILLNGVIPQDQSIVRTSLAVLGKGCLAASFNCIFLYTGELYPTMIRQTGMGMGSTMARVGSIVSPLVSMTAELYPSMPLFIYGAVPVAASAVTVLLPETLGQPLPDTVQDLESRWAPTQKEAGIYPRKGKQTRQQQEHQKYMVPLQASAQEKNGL

[19] = target: T1, Solute carrier family 22 member 6; assay: Inhibition of human OAT1 expressed in HEK293 cells assessed as P-amino hippuric acid uptake inhibition incubated for 10 mins by UPLC-MS/MS method; type: ADME, cell-based
[20] = tested on: HEK293; assay: Cytotoxicity against human HEK293 cells expressing OAT1 assessed as reduction in cell viability at 1000 uM after 1 hr by MTT assay relative to control; type: ADME, cell-based; settings: hek293, 1 h
[21] = AUC (0 to t) in Sprague-Dawley rat at 100 mg/kg, po measured up to 24 hrs by LC-MS/MS analysis; type: ADME, organism-based; parameters: dose 100 mg/kg, time < 24 hr, route oral; settings: in vivo
[22] = Volume of distribution in Sprague-Dawley rat at 100 mg/kg, po measured up to 24 hrs by LC-MS/MS analysis; type: ADME, organism-based; settings: in vivo
[23] = Drug distribution in mouse kidney at 5.47 mg/kg, po measured up to 24 hrs by LC-MS/MS analysis; type: ADME, organism-based; settings: in vivo
[24] = tested on: HK-2; assay: Cytotoxicity against human HK2 cells assessed as reduction in cell viability after 72 hrs by MTT assay; type: cell-based; settings: hk-2, 72 h
[25] = tested on: OAT1; assay: Selectivity ratio, ratio of substrate activity at human OAT1 expressed in HEK293 cells harboring pEGFP assessed as compound uptake to substrate activity in human HEK293 cells harboring pEGFP-N1 empty vector assessed as compound uptake; type: ADME, cell-based
[26] = tested on: HK-2; assay: Cytotoxicity against human HK2 cells assessed as cell viability at 25 to 100 uM after 72 hrs by MTT assay relative to control; type: cell-based; settings: hk-2, 72 h
[27] = tested on: HK-2; assay: Induction of mitochondrial membrane dysfunction in human HK2 cells assessed as effect mitochondrial membrane potential at 100 uM after 72 hrs by JC-1 staining based flow cytometry; type: cell-based; settings: hk-2, 72 h
[28] = tested on: HK-2; assay: Nephrotoxicity in human HK2 cells assessed as decrease in cell apoptosis at 25 to 100 uM measured after 72 hrs by Hoechst 33342 staining based fluorescence assay relative to ADV; type: toxicity; parameters: scale not given: the % may be the effect or the level left; settings: hk-2, 72 h
[29] = tested on: HK-2; assay: Induction of apoptosis in human HK2 cells assessed as increase in Bax/Bcl2 ratio at 25 to 100 uM after 72 hrs by Western blot analysis; type: cell-based; settings: hk-2, 72 h
[30] = tested on: HEK293; assay: Substrate activity in human HEK293 cells harboring pEGFP-N1 empty vector assessed as compound uptake measured at 5 to 40 mins by UPLC-MS/MS method; type: ADME, cell-based
[31] = target: T2, OAT1 (solute carrier family 22 member 6) (Homo sapiens, UniProt Q4U2R8); assay: Safety index, ratio of Adefovir dipivoxil IC50 to compound IC50 for human OAT1 expressed in HEK293 cells; type: ADME, cell-based; settings: read-out: Ratio IC50
T2 sequence (Q4U2R8 whole entry): T1 sequence (Q4U2R8 whole entry)

[32] = tested on: HEK293; assay: Cytotoxicity against human HEK293 cells harboring pEGFP-N1 empty vector assessed as reduction in cell viability after 1 hr by MTT assay; type: cell-based; settings: hek293, 1 h
[33] = Drug distribution in mouse liver at 5.47 mg/kg, po measured at 30 mins by LC-MS/MS analysis; type: ADME, organism-based; settings: read-out: Drug uptake
[34] = Drug distribution in mouse liver at 5.47 mg/kg, po measured at 60 mins by LC-MS/MS analysis; type: ADME, organism-based; settings: read-out: Drug uptake
[35] = Drug distribution in mouse liver at 5.47 mg/kg, po measured at 3 hrs by LC-MS/MS analysis; type: ADME, organism-based; settings: read-out: Drug uptake
[36] = Drug distribution in mouse liver at 5.47 mg/kg, po measured at 6 hrs by LC-MS/MS analysis; type: ADME, organism-based; settings: read-out: Drug uptake
[37] = Drug distribution in mouse liver at 5.47 mg/kg, po measured at 24 hrs by LC-MS/MS analysis; type: ADME, organism-based; settings: read-out: Drug uptake
[38] = Potency index, ratio of ADV drug concentration to compound concentration in mouse liver measured at 30 mins; type: ADME, tissue-based; settings: in vivo, 0.5 h
[39] = Potency index, ratio of ADV drug concentration to compound concentration in mouse liver measured at 60 mins; type: ADME, tissue-based; settings: in vivo, 1 h
[40] = Potency index, ratio of ADV drug concentration to compound concentration in mouse liver measured at 3 hrs; type: ADME, tissue-based; settings: in vivo
[41] = Potency index, ratio of ADV drug concentration to compound concentration in mouse liver measured at 6 hrs; type: ADME, tissue-based; settings: in vivo
[42] = Potency index, ratio of ADV drug concentration to compound concentration in mouse liver measured at 24 hrs; type: ADME, tissue-based; settings: in vivo
[43] = tested on: HEK293; assay: Cytotoxicity against human HEK293 cells expressing OAT1 assessed as reduction in cell viability after 1 hr by MTT assay; type: ADME, cell-based; settings: hek293, 1 h

## CC(C)(C)C(=O)OCOP(=O)(COCCn1cnc2c(N)ncnc21)OCOC(=O)C(C)(C)C [ADEFOVIR DIPIVOXIL]
[1]
  EC50: 3.09 µM
[2]
  CC50: 439 µM
[3]
  selectivity ratio: 142
[4]
  Activity: 61.01%
[5]
  Activity: Toxic
[6]
  Activity: Toxic
[7]
  Activity: Toxic
[8]
  Activity: Toxic
[9]
  Activity: Toxic
[10]
  Activity: Toxic
[11]
  Activity: 16.8%
[12]
  Activity: 18.9%
[13]
  Activity: 43.3%
[14]
  Activity: Toxic
[15]
  Activity: Toxic
[16]
  Activity: Dose-dependent effect
[17]
  Activity: Toxic
[18]
  Activity: 400 pmol/min/mg
[19]
  IC50: 13.5 µM
[20]
  Activity: 47.16%
[21]
  AUCt: 1655.225 µg/L/h
[22]
  Vd: 153.128 L/kg
[23]
  Drug uptake: Active
[24]
  Activity: Dose-dependent effect
[25]
  uptake ratio: 7.5

## CC(C)C[C@@H](N)C(=O)OCCCOP(=O)(COCCn1cnc2c(N)ncnc21)OCCCOC(=O)CC[C@@H](C)[C@H]1CC[C@H]2[C@@H]3[C@@H](O)C[C@@H]4C[C@H](O)CC[C@]4(C)[C@H]3CC[C@]12C (some centres not stated)
[1]
  EC50: 0.42 µM
[2]
  CC50: 446 µM
[3]
  selectivity ratio: 1060
[26]
  Activity: Non-Toxic
[27]
  Activity: Non-Toxic
[8]
  Activity: Non-Toxic
[9]
  Activity: Non-Toxic
[10]
  Activity: Non-Toxic
[28]
  Activity: 37.4%
[11]
  Activity: 9.7%
[12]
  Activity: 6.1%
[13]
  Activity: 5.9%
[29]
  Activity: Non-Toxic
[17]
  Activity: Non-Toxic
[18]
  Activity: < 60 pmol/min/mg
[30]
  Activity: < 60 pmol/min/mg
[19]
  IC50: 286 µM
[31]
  selectivity ratio: 21
[32]
  Activity: Non-Toxic
[21]
  AUCt: 4645.705 µg/L/h
[22]
  Vd: 78.716 L/kg
[33]
  concentration at 0.5 h: 305 ng/g
[34]
  concentration at 1 h: 1070 ng/g
[35]
  concentration at 3 h: 1160 ng/g
[36]
  concentration at 6 h: 721 ng/g
[37]
  concentration at 24 h: 695 ng/g
[38]
  Ratio: 4.2
[39]
  Ratio: 6.5
[40]
  Ratio: 3.4
[41]
  Ratio: 4.8
[42]
  Ratio: 8.8
[43]
  Activity: Non-Toxic

Source: ChEMBL document CHEMBL4346741, “Synthesis, pharmacological evaluation, and mechanistic study of adefovir mixed phosphonate derivatives bearing cholic acid and l-amino acid moieties for the treatment of HBV” (Bioorg Med Chem, 2019)
